Results taken from US20250084074A1, “SUBSTITUTED HETEROCYCLES AS HSET INHIBITORS” (MERCK PATENT GMBH, priority 2022, published 2025).
Where a name gives a salt, the structure may show the parent alone.

Molecular target: HSET full length protein (Homo sapiens (Human), UniProt Q9BW19)
Experiment: HSET ADP-Glo Assay S - 3 μM ATP
Type: biochemical
Conditions: 5 nM HSET, 70 μg/mL microtubule, 80 min at rt, read-out: COMBINED HSET ADP GLO IC50
How it was run: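 ADP-Glo luminescence read-out: ATPase reaction at 3 μM ATP, 80 min at room temperature, after a 10 min compound preincubation. Enzyme was full-length human HSET at 5 nM, stimulated by 70 μg/mL paclitaxel-stabilised bovine microtubules in HEPES pH 6.8 buffer with MgCl2, EGTA, Triton X-100 and DTT.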

Chain of HSET full length protein (Q9BW19 whole entry): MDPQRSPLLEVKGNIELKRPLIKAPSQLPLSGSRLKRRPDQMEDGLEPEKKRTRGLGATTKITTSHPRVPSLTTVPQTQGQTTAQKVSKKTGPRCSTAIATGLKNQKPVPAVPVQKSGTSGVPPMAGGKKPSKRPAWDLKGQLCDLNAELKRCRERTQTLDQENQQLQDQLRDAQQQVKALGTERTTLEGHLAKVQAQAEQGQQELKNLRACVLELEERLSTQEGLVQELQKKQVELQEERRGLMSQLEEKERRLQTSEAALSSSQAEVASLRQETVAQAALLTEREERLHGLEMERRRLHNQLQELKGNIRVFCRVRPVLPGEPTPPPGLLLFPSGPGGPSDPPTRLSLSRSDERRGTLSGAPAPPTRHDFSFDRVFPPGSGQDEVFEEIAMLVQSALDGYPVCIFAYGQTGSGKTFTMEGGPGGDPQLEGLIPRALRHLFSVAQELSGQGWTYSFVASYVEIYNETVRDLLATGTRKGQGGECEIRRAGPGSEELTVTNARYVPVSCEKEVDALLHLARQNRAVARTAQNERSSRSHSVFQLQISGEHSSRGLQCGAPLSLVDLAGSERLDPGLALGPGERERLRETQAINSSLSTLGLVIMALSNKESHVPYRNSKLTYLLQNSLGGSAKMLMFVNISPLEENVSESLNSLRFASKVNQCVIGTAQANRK

Row | IC50 | SMILES
1 | 0.023 µM | CNCCC[C@@H](CC(=O)Nc1nc(C)c(C(=O)OC2CCCC2)s1)Nc1nccc2ccc(-c3noc(C)n3)cc12 [Example 165, Cyclopentyl (S)-4-methyl-2-(3-((7-(5-methyl-1,2,4-oxadiazol-3-yl)isoquinolin-1-yl)amino)-6-(methylamino)hexanamido)thiazole-5-carboxylate]
2 | 0.011 µM | CNCCC[C@@H](CC(=O)Nc1nc(C)c(C(=O)OC(CF)CF)s1)Nc1nccc2ccc(-c3noc(C)n3)cc12 [Example 166, 1,3-Difluoropropan-2-yl (S)-4-methyl-2-(3-((7-(5-methyl-1,2,4-oxadiazol-3-yl)isoquinolin-1-yl)amino)-6-(methylamino)hexanamido)thiazole-5-carboxylate]
3 | 0.01 µM | CNCCC[C@@H](CC(=O)Nc1nc(C)c(C(=O)OC(C)C)s1)Nc1nccc2ccc(-c3noc(C)n3)cc12 [Example 167, Isopropyl (S)-4-methyl-2-(3-((7-(5-methyl-1,2,4-oxadiazol-3-yl)isoquinolin-1-yl)amino)-6-(methylamino)hexanamido)thiazole-5-carboxylate]
4 | 0.003 µM | CNCCC[C@@H](CC(=O)Nc1nc(C)c(C(=O)OC(C)(C)C)s1)Nc1nccc2ccc(-c3noc(C)n3)cc12 [Example 168, tert-Butyl (S)-4-methyl-2-(3-((7-(5-methyl-1,2,4-oxadiazol-3-yl)isoquinolin-1-yl)amino)-6-(methylamino)hexanamido)thiazole-5-carboxylate]

More lines, now with the values behind:

Row | SMILES | IC50
5 | CNCCC[C@@H](CC(=O)Nc1nc(C)c(C(=O)OC(C)C)s1)NC(=O)c1cccc(-c2noc(C)n2)c1 [Example 156, Isopropyl (S)-4-methyl-2-(3-(3-(5-methyl-1,2,4-oxadiazol-3-yl)benzamido)-6-(methylamino)hexanamido)thiazole-5-carboxylate] | 0.053 µM
6 | CNCCC[C@@H](CC(=O)Nc1nc(C)c(C(C)(C)C)s1)NC(=O)c1cc(Cl)cc(-c2noc(C)n2)c1 [Example 157, (S)-N-(1-((5-(tert-butyl)-4-methylthiazol-2-yl)amino)-6-(methylamino)-1-oxohexan-3-yl)-3-chloro-5-(5-methyl-1,2,4-oxadiazol-3-yl)benzamide] | 0.373 µM
7 | CCCOC(=O)c1sc(NC(=O)C[C@H](CCCN(C)C)NC(=O)c2cccc(-c3noc(C)n3)c2)nc1C [Example 158, Propyl (S)-2-(6-(dimethylamino)-3-(3-(5-methyl-1,2,4-oxadiazol-3-yl)benzamido)hexanamido)-4-methylthiazole-5-carboxylate] | 0.011 µM
8 | CCCOC(=O)c1sc(NC(=O)C[C@H](CCCN2CCOCC2)NC(=O)c2cccc(-c3noc(C)n3)c2)nc1C [Example 159, Propyl (S)-4-methyl-2-(3-(3-(5-methyl-1,2,4-oxadiazol-3-yl)benzamido)-6-morpholinohexanamido)thiazole-5-carboxylate] | 0.021 µM
9 | CCCOC(=O)c1sc(NC(=O)C[C@H](CCN(C)C)NC(=O)c2cccc(-c3noc(C)n3)c2)nc1C [Example 162, Propyl (S)-2-(5-(dimethylamino)-3-(3-(5-methyl-1,2,4-oxadiazol-3-yl)benzamido)pentanamido)-4-methylthiazole-5-carboxylate] | 0.558 µM
10 | CCCOC(=O)c1sc(NC(=O)C[C@H](CCCN)Nc2nccc3ccc(-c4noc(C)n4)cc23)nc1C [Example 163, Propyl (S)-2-(6-amino-3-((7-(5-methyl-1,2,4-oxadiazol-3-yl)isoquinolin-1-yl)amino)hexanamido)-4-methylthiazole-5-carboxylate] | 0.013 µM
11 | Cc1nc(-c2ccc3ccnc(N[C@@H](CCCN)CC(=O)Nc4nc(C)c(C(C)(C)C)s4)c3c2)no1 [Example 164, (S)-6-amino-N-(5-(tert-butyl)-4-methylthiazol-2-yl)-3-((7-(5-methyl-1,2,4-oxadiazol-3-yl)isoquinolin-1-yl)amino)hexanamide formate] | 0.116 µM
